# From PubChem BioAssay AID1963961 (Molecular Pharmacology Branch, DTP, NCI, 2024)
# Test system: K98450-129-R-PDC multicell spheroids, viability
# Test: Anticancer human tumor K98450-129-R-PDC patient-derived colon adenocarcinoma cell line growth inhibition [PI3K]
# Settings: for IC50: curve of first compound; for viability, T/C: stronger effect = lower value
# How it was run: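 Tumor cells were combined with HUVEC and MSCs into spheroids, then dosed with PI3K-inhibitor combinations over half-log ranges capped near clinical Cmax or 10 microM.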
# [1] = second compound 0.00316 µM, first compound 0.0316 µM
# [2] = second compound 0.00316 µM, first compound 0.1 µM
# [3] = second compound 0.00316 µM, first compound 0.316 µM
# [4] = second compound 0.00316 µM, first compound 1 µM
# [5] = second compound 0.00316 µM, first compound 3.16 µM
# [6] = second compound 0.00316 µM, first compound 10 µM
# [7] = second compound 0.01 µM, first compound 0.0316 µM
# [8] = second compound 0.01 µM, first compound 0.1 µM
# [9] = second compound 0.01 µM, first compound 0.316 µM
# [10] = second compound 0.01 µM, first compound 1 µM
# [11] = second compound 0.01 µM, first compound 3.16 µM
# [12] = second compound 0.01 µM, first compound 10 µM
# [13] = second compound 0.0316 µM, first compound 0.0316 µM
# [14] = second compound 0.0316 µM, first compound 0.1 µM
# [15] = second compound 0.0316 µM, first compound 0.316 µM
# [16] = second compound 0.0316 µM, first compound 1 µM
# [17] = second compound 0.0316 µM, first compound 3.16 µM
# [18] = second compound 0.0316 µM, first compound 10 µM
# [19] = second compound 0.1 µM, first compound 0.0316 µM
# [20] = second compound 0.1 µM, first compound 0.1 µM
# [21] = second compound 0.1 µM, first compound 0.316 µM
# [22] = second compound 0.1 µM, first compound 1 µM
# [23] = second compound 0.1 µM, first compound 3.16 µM
# [24] = second compound 0.1 µM, first compound 10 µM
# [25] = second compound 0.316 µM, first compound 0.0316 µM
# [26] = second compound 0.316 µM, first compound 0.1 µM
# [27] = second compound 0.316 µM, first compound 0.316 µM
# [28] = second compound 0.316 µM, first compound 1 µM
# [29] = second compound 0.316 µM, first compound 3.16 µM
# [30] = second compound 0.316 µM, first compound 10 µM
# [31] = second compound 1 µM, first compound 0.0316 µM
# [32] = second compound 1 µM, first compound 0.1 µM
# [33] = second compound 1 µM, first compound 0.316 µM
# [34] = second compound 1 µM, first compound 1 µM
# [35] = second compound 1 µM, first compound 3.16 µM
# [36] = second compound 1 µM, first compound 10 µM
# 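Further: spheroids exposed to agents for seven days before read-out.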
compound,measurement,setting,value
C#Cc1c(F)ccc2cc(O)cc(-c3ncc4c(N5CC6CCC(C5)N6)nc(OCC56CCCN5CC(F)C6)nc4c3F)c12 (centres undefined) + COc1c(OCCCN2CCOCC2)ccc2c3n(c(=NC(=O)c4cnc(N)nc4)nc12)CCN3,IC50,second compound 0.00316 µM,> 10 µM
same,IC50,second compound 0.01 µM,> 10 µM
same,IC50,second compound 0.0316 µM,> 10 µM
same,IC50,second compound 0.1 µM,> 10 µM
same,IC50,second compound 0.316 µM,> 10 µM
same,IC50,second compound 1 µM,2.44 µM
same,"viability, T/C",[1],114%
same,"viability, T/C",[2],108%
same,"viability, T/C",[3],110%
same,"viability, T/C",[4],90%
same,"viability, T/C",[5],89.1%
same,"viability, T/C",[6],81.7%
same,"viability, T/C",[7],122%
same,"viability, T/C",[8],113%
same,"viability, T/C",[9],99.9%
same,"viability, T/C",[10],101%
same,"viability, T/C",[11],100%
same,"viability, T/C",[12],79.5%
same,"viability, T/C",[13],91.6%
same,"viability, T/C",[14],101%
same,"viability, T/C",[15],76%
same,"viability, T/C",[16],81.7%
same,"viability, T/C",[17],85.6%
same,"viability, T/C",[18],74.3%
same,"viability, T/C",[19],64%
same,"viability, T/C",[20],65.7%
same,"viability, T/C",[21],80.8%
same,"viability, T/C",[22],71%
same,"viability, T/C",[23],75.8%
same,"viability, T/C",[24],64.3%
same,"viability, T/C",[25],60.8%
same,"viability, T/C",[26],58%
same,"viability, T/C",[27],67.3%
same,"viability, T/C",[28],62.6%
same,"viability, T/C",[29],49.1%
same,"viability, T/C",[30],47.9%
same,"viability, T/C",[31],54.6%
same,"viability, T/C",[32],66%
same,"viability, T/C",[33],53.9%
same,"viability, T/C",[34],51.2%
same,"viability, T/C",[35],50.9%
same,"viability, T/C",[36],25.8%
CC(Cn1ccc(-c2ccc(C#N)c(Cl)c2)n1)NC(=O)c1cc(C(C)O)[nH]n1 (centres undefined) + COc1c(OCCCN2CCOCC2)ccc2c3n(c(=NC(=O)c4cnc(N)nc4)nc12)CCN3,IC50,second compound 0.00316 µM,> 10 µM
same,IC50,second compound 0.01 µM,> 10 µM
same,IC50,second compound 0.0316 µM,> 10 µM
same,IC50,second compound 0.1 µM,> 10 µM
same,IC50,second compound 0.316 µM,> 10 µM
same,IC50,second compound 1 µM,4.9 µM
same,"viability, T/C",[1],102%
same,"viability, T/C",[2],97.7%
same,"viability, T/C",[3],117%
same,"viability, T/C",[4],104%
same,"viability, T/C",[5],107%
same,"viability, T/C",[6],111%
same,"viability, T/C",[7],116%
same,"viability, T/C",[8],95%
same,"viability, T/C",[9],105%
same,"viability, T/C",[10],102%
same,"viability, T/C",[11],90.7%
same,"viability, T/C",[12],89.5%
same,"viability, T/C",[13],88.9%
same,"viability, T/C",[14],92.9%
same,"viability, T/C",[15],80.5%
same,"viability, T/C",[16],89.6%
same,"viability, T/C",[17],93.1%
same,"viability, T/C",[18],75.8%
same,"viability, T/C",[19],74.9%
same,"viability, T/C",[20],79%
same,"viability, T/C",[21],82.1%
same,"viability, T/C",[22],95.2%
same,"viability, T/C",[23],90%
same,"viability, T/C",[24],71.1%
same,"viability, T/C",[25],47.2%
same,"viability, T/C",[26],59.4%
same,"viability, T/C",[27],64.2%
same,"viability, T/C",[28],62.1%
same,"viability, T/C",[29],72.1%
same,"viability, T/C",[30],43.6%
same,"viability, T/C",[31],48.5%
same,"viability, T/C",[32],59.8%
same,"viability, T/C",[33],63.2%
same,"viability, T/C",[34],52.1%
same,"viability, T/C",[35],54.2%
same,"viability, T/C",[36],44%
